Where two headings read alike, the source gives them in different places.
Legend:
DYRK1A = DYRK1A (Homo sapiens (Human), UniProt Q13627); assay: DYRK1A kinase assay (HotSpot, Reaction Biology); format: biochemical; conditions: purified recombinant kinase, 10 μM ATP, room temperature 120 min
DYRK1B = DYRK1B (Homo sapiens (Human), UniProt Q9Y463); assay: DYRK1B kinase assay (HotSpot, Reaction Biology); format: biochemical
[1] = purified recombinant kinase, 10 μM ATP, room temperature 120 min

Sequence of DYRK1B (Q9Y463 whole entry): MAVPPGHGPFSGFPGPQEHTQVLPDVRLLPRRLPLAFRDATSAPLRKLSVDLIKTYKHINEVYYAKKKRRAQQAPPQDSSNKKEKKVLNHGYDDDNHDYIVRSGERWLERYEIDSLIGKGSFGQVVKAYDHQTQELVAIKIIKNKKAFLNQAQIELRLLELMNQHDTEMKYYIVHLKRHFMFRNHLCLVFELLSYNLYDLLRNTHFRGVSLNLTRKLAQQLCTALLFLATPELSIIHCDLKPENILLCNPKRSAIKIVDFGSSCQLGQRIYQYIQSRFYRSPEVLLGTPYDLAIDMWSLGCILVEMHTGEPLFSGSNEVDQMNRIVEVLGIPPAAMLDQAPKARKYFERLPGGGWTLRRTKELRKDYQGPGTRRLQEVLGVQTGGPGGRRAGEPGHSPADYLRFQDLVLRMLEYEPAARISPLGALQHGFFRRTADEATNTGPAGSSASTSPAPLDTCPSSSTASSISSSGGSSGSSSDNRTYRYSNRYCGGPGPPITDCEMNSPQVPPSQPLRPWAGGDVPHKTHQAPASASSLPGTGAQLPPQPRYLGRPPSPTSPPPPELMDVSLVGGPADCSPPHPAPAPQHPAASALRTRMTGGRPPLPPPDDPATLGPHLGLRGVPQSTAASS

SMILES | IC50 (DYRK1A) [nM] | IC50 (DYRK1B; [1]) [nM] | IC50 (DYRK1B) [nM]
COC(=N)c1nc2ccc3ncnc(Nc4ccc5c(c4)OCCO5)c3c2s1 [Compound 49, Methyl 9-(2,3-dihydrobenzo[b][1,4]dioxin-6-ylamino)thiazolo[5,4-f]quinazoline-2-carbimidate] | 8 |  | 
CC(C)(C)CNc1ncnc2ccc(-c3ccc4c(c3)OCO4)cc12 [NCGC-00189310, reference compound] | 2.2 | 20.6 | 
COC(=N)c1nc2ccc3ncnc(Nc4ccccc4)c3c2s1 [Compound 64, Methyl 9-(phenylamino)thiazolo[5,4-f]quinazoline-2-carbimidate] | 1.81 | 3.48 | 
COC(=N)c1nc2ccc3ncnc(Nc4cccc(C#N)c4)c3c2s1 [Compound 67, Methyl 9-(3-cyanophenylamino)thiazolo[5,4-f]quinazoline-2-carbimidate] | 42.7 | 72 | 
COC(=N)c1nc2ccc3ncnc(Nc4ccc(OC)c([N+](=O)[O-])c4)c3c2s1 [Compound 73, Methyl 9-(4-methoxy-3-nitrophenylamino)thiazolo[5,4-f]quinazoline-2-carbimidate] | 124 |  | 
CN(C)CCNC(=N)c1nc2ccc3ncnc(Nc4ccc5c(c4)OCO5)c3c2s1 [Compound 33, 9-(Benzo[d][1,3]dioxol-5-ylamino)-N-(2-(dimethylamino)ethyl)thiazolo[5,4-f]quinazoline-2-carboximidamide] | 431 |  | 
COC(=N)c1nc2ccc3ncnc(Nc4ccc(C(C)(C)C)cc4)c3c2s1 [Compound 74, Methyl 9-(4-tert-butylphenylamino)thiazolo[5,4-f]quinazoline-2-carbimidate] | 39 | 93.8 | 
COC(=N)c1nc2ccc3ncnc(Nc4ccc(OC)cc4)c3c2s1 [Compound 45, Methyl 9-(4-methoxyphenylamino)thiazolo[5,4-f]quinazoline-2-carbimidate] | 13.1 | 19.2 | 
N=C(NCCN1CCOCC1)c1nc2ccc3ncnc(Nc4ccc5c(c4)OCO5)c3c2s1 [Compound 29, 9-(Benzo[d][1,3]dioxol-5-ylamino)-N-(2-morpholinoethyl)thiazolo[5,4-f]quinazoline-2-carboximidamide] | 1000 to 10000 |  | 
COC(=N)c1nc2ccc3ncnc(Nc4ccc(O)c([N+](=O)[O-])c4)c3c2s1 [Compound 60, Methyl 9-(4-hydroxy-3-nitrophenylamino)thiazolo[5,4-f]quinazoline-2-carbimidate] | 4.91 | 5.68 | 
N=C(NCCN1CCCCC1)c1nc2ccc3ncnc(Nc4ccc5c(c4)OCO5)c3c2s1 [Compound 30, 9-(Benzo[d][1,3]dioxol-5-ylamino)-N-(2-(piperidin-1-yl)ethyl)thiazolo[5,4-f]quinazoline-2-carboximidamide] | 1000 to 10000 |  | 
CC(C)OC(=N)c1nc2ccc3ncnc(Nc4ccc5c(c4)OCO5)c3c2s1 [Compound 85, isopropyl 9-(benzo[d][1,3]dioxol-5-ylamino)thiazolo[5,4-f]quinazoline-2-carbimidate] | 125 |  | 218
COc1ccc(Nc2ncnc3ccc4nc(C5=NCCO5)sc4c23)cc1 [Compound 42, 2-(4,5-dihydrooxazol-2-yl)-N-(4-methoxyphenyl)thiazolo[5,4-f]quinazolin-9-amine] |  | 18700 | 
COC(=N)c1nc2ccc3ncnc(Nc4ccc(C#N)cc4)c3c2s1 [Compound 70, Methyl 9-(4-cyanophenylamino)thiazolo[5,4-f]quinazoline-2-carbimidate] | 3.89 | 7.69 | 
COC(=N)c1nc2ccc3ncnc(Nc4ccc(N5CCCC5)cc4)c3c2s1 [Compound 77, Methyl 9-(4-(pyrrolidin-1-yl)phenylamino)thiazolo[5,4-f]quinazoline-2-carbimidate] | 54.8 | 186 | 
CCN(CC)CCNC(=N)c1nc2ccc3ncnc(Nc4ccc5c(c4)OCO5)c3c2s1 [Compound 34, 9-(Benzo[d][1,3]dioxol-5-ylamino)-N-(2-(diethylamino)ethyl)thiazolo[5,4-f]quinazoline-2-carboximidamide] | 1000 to 10000 |  | 
N=C(OCc1ccccc1)c1nc2ccc3ncnc(Nc4ccc5c(c4)OCO5)c3c2s1 [Compound 83, benzyl 9-(benzo[d][1,3]dioxol-5-ylamino)thiazolo[5,4-f]quinazoline-2-carbimidate] | 33.9 | 37.3 | 
COC(=N)c1nc2ccc3ncnc(Nc4ccc(C(F)(F)F)cc4)c3c2s1 [Compound 80, Methyl 9-(4-(trifluoromethyl)phenylamino)thiazolo[5,4-f]quinazoline-2-carbimidate] | 18.3 | 25.2 | 
COC(=N)c1nc2ccc3ncnc(Nc4ccc(OC)c(OC)c4)c3c2s1 [Compound 51, Methyl 9-(3,4-dimethoxyphenylamino)thiazolo[5,4-f]quinazoline-2-carbimidate] |  | 161 | 
C#Cc1cccc(Nc2ncnc3ccc4nc(C(=N)OC)sc4c23)c1 [Compound 58, Methyl 9-(3-ethynylphenylamino)thiazolo[5,4-f]quinazoline-2-carbimidate] | 40.8 | 46.3 | 
COC(=N)c1nc2ccc3ncnc(Nc4cc(OC)cc(OC)c4)c3c2s1 [Compound 63, Methyl 9-(3,5-dimethoxyphenylamino)thiazolo[5,4-f]quinazoline-2-carbimidate] | 299 |  | 
COC(=N)c1nc2ccc3ncnc(Nc4ccc5c(c4)OCO5)c3c2s1 [Compound 48, Methyl 9-(benzo[d][1,3]dioxol-5-ylamino)thiazolo[5,4-f]quinazoline-2-carbimidate] |  | 4.2 | 
CN(C)C(=N)c1nc2ccc3ncnc(Nc4ccc(Br)cc4F)c3c2s1 [Compound 14] | 147 |  | 

Further lines, with some results ahead:

IC50 (DYRK1A) [nM] | IC50 (DYRK1B; [1]) [nM] | SMILES | IC50 (DYRK1B) [nM]
6.06 | 9.64 | COC(=N)c1nc2ccc3ncnc(Nc4ccc(F)cc4)c3c2s1 [Compound 66, Methyl 9-(4-fluorophenylamino)thiazolo[5,4-f]quinazoline-2-carbimidate] | 
5.1 | 7.7 | COC(=O)c1nc2ccc3ncnc(Nc4ccc(Cl)cc4Cl)c3c2s1 [Compound 89, methyl 9-((2,4-dichlorophenyl)amino)thiazolo[5,4-f]quinazoline-2-carboxylate] | 
1000 to 10000 |  | CN(C)C(=N)c1nc2ccc3ncnc(Nc4ccc(F)c(Cl)c4)c3c2s1 [Compound 7, 9-(3-Chloro-4-fluorophenylamino)-N,N-dimethylthiazolo[5,4-f]quinazoline-2-carboximidamide] | 
194 |  | NC(=O)c1nc2ccc3ncnc(Nc4ccc(Br)cc4F)c3c2s1 [Compound 36, 9-(4-Bromo-2-fluorophenylamino)thiazolo[5,4-f]quinazoline-2-carboxamide] | 
0.16 | 0.24 | COC(=N)c1nc2ccc3ncnc(Nc4ccc(F)cc4Br)c3c2s1 [Compound 68, Methyl 9-(2-bromo-4-fluorophenylamino)thiazolo[5,4-f]quinazoline-2-carbimidate] | 
47.5 | 69.4 | CCCCOC(=N)c1nc2ccc3ncnc(Nc4ccc(Cl)cc4Cl)c3c2s1 [Compound 88, butyl 9-((2,4-dichlorophenyl)amino)thiazolo[5,4-f]quinazoline-2-carbimidate] | 
8.63 | 11 | COC(=N)c1nc2ccc3ncnc(Nc4ccc(O)c(F)c4)c3c2s1 [Compound 79, Methyl 9-(3-fluoro-4-hydroxyphenylamino)thiazolo[5,4-f]quinazoline-2-carbimidate] | 
33.2 | 34.4 | CCOC(=N)c1nc2ccc3ncnc(Nc4ccc(Br)cc4F)c3c2s1 [Compound 81, Ethyl 9-(4-bromo-2-fluorophenylamino)thiazolo[5,4-f]quinazoline-2-carbimidate] | 
13.6 | 18.8 | COC(=N)c1nc2ccc3ncnc(Nc4cccc(Cl)c4)c3c2s1 [Compound 75, Methyl 9-(3-chlorophenylamino)thiazolo[5,4-f]quinazoline-2-carbimidate] | 
26.2 | 31.5 | NC(=O)c1nc2ccc3ncnc(Nc4ccc(F)cc4Br)c3c2s1 [Compound 86, 9-((2-bromo-4-fluorophenyl)amino)thiazolo[5,4-f]quinazoline-2-carboxamide] | 
0.94 | 1.07 | COC(=N)c1nc2ccc3ncnc(Nc4ccc(F)cc4F)c3c2s1 [Compound 78, Methyl 9-(2,4-difluorophenylamino)thiazolo[5,4-f]quinazoline-2-carbimidate] | 
1000 to 10000 |  | N=C(NCc1ccncc1)c1nc2ccc3ncnc(Nc4ccc(Br)cc4F)c3c2s1 [Compound 19, 9-(4-Bromo-2-fluorophenylamino)-N-(pyridin-4-ylmethyl)thiazolo[5,4-f]quinazoline-2-carboximidamide] | 
34.9 | 43.4 | NC(=O)c1nc2ccc3ncnc(Nc4ccc(Cl)cc4Cl)c3c2s1 [Compound 87, 9-((2,4-dichlorophenyl)amino)thiazolo[5,4-f]quinazoline-2-carboxamide] | 
1000 to 10000 |  | N=C(NCc1ccc(F)cc1)c1nc2ccc3ncnc(Nc4ccc(Br)cc4F)c3c2s1 [Compound 16, 9-(4-Bromo-2-fluorophenylamino)-N-(4-fluorobenzyl)thiazolo[5,4-f]quinazoline-2-carboximidamide] | 
66.8 |  | COC(=N)c1nc2ccc3ncnc(Nc4ccc(Cl)c(Cl)c4)c3c2s1 [Compound 57, Methyl 9-(3,4-dichlorophenylamino)thiazolo[5,4-f]quinazoline-2-carbimidate] | 
